Ki data for 16 molecules are collected here from ChEMBL document CHEMBL1143627, “Enantiomerically pure hexahydropyrazinoquinolines as potent and selective dopamine 3 subtype receptor ligands” (J Med Chem, 2005).

SMILES strings stand for the structures. Bounds are passed on as bounds.

One experiment concerns the target D(2) dopamine receptor (Rattus norvegicus, UniProt P61169). Kind of experiment: Inhibition of [3H]spiperone binding to Dopamine receptor D2-like in rat caudate-putamen membrane. It is filed as cell membranes.
In a further experiment the target is D(3) dopamine receptor (Rattus norvegicus, UniProt P19020). The experiment is described as follows: biochemical.
D(3) dopamine receptor, sequence (P19020 whole entry): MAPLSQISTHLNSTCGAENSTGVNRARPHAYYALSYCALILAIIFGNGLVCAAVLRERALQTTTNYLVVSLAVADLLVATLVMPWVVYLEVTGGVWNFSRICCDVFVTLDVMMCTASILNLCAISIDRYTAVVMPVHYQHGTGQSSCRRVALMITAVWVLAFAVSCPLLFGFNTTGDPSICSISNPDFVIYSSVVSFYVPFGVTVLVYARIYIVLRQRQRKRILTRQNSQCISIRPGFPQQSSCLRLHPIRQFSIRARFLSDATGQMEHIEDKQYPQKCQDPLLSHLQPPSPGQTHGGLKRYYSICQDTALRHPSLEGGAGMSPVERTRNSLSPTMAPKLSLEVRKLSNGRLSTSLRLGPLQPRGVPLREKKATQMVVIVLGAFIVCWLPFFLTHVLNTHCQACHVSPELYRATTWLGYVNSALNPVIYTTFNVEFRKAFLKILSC

D(2) dopamine receptor, sequence (P61169 whole entry): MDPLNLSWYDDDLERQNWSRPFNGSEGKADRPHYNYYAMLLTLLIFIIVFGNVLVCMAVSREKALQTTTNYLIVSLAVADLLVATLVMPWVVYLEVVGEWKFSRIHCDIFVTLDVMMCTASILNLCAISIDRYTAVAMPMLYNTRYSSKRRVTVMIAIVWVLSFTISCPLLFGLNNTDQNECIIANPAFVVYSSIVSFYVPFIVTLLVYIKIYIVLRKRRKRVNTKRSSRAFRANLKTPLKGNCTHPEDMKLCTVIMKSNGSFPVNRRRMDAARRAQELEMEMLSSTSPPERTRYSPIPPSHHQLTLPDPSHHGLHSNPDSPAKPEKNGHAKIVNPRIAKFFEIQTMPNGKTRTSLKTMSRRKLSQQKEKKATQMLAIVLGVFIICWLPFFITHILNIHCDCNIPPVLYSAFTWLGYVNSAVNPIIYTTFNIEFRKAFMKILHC
Description for D(3) dopamine receptor: Inhibition of [3H]-PD 128907 binding to Dopamine receptor D3 in rat ventral striatum

In the case of `COc1ccc2c(c1)CC[C@H]1CN(CCCCNC(=O)c3ccc4ccccc4c3)CCN21`, the Ki at D(2) dopamine receptor was greater than 50000 nM; at D(3) dopamine receptor, 126 nM.
The corresponding values for `COc1cccc2c1CC[C@@H]1CN(CCCCNC(=O)c3ccc4ccccc4c3)CCN21` are 644 nM and 8.3 nM.
Turning to `COc1ccc2c(c1)N1CCN(CCCCNC(=O)c3ccc4ccccc4c3)C[C@@H]1CC2`, the results for the inhibition constant (Ki) on D(2) dopamine receptor and on D(3) dopamine receptor were 990 nM and 96 nM, respectively.
The corresponding values for `COc1cccc2c1CC[C@H]1CN(CCCCNC(=O)c3ccc4ccccc4c3)CCN21` are 659 nM and 9.3 nM.
The corresponding values for `O=C(NCCCCN1CCN2c3ccccc3CC[C@H]2C1)c1ccc2ccccc2c1` are 180 nM and 16 nM.
The corresponding values for `COc1ccc2c(c1)CC[C@H]1CN(CCC3CCC(NC(=O)c4ccc5ccccc5c4)CC3)CCN21` (stereo partly drawn) are greater than 10000 nM and 10 nM.
As for `COc1ccc2c(c1)CC[C@@H]1CN(CC[C@H]3CC[C@H](NC(=O)c4ccc5ccccc5c4)CC3)CCN21`, the Ki was greater than 10000 nM on D(2) dopamine receptor and 5.7 nM on D(3) dopamine receptor.
The corresponding values for `COc1ccc2c(c1)CC[C@H]1CN(CCN3CCC(NC(=O)c4ccc5ccccc5c4)CC3)CCN21` are greater than 25000 nM and 7160 nM.
Take `COc1cccc2c1N1CCN(CCCCNC(=O)c3ccc4ccccc4c3)C[C@H]1CC2`: on D(2) dopamine receptor, the inhibitory constant (Ki) amounted to 312 nM.
In the case of `O=C(NCCCCN1CCN2c3ccccc3CC[C@@H]2C1)c1ccc2ccccc2c1`, the Ki on D(2) dopamine receptor came to 585 nM; on D(3) dopamine receptor it was 19 nM.
Molecule `COc1cccc2c1N1CCN(CCCCNC(=O)c3ccc4ccccc4c3)C[C@@H]1CC2` came in with an inhibition constant (Ki) at D(2) dopamine receptor of 88 nM.
Same read-out and setting: as for `O=C(CCCN1CCN2c3ccccc3CCC2C1)c1ccc(F)cc1` (stereo not drawn), the figure is 243 nM.
As to `COc1ccc2c(c1)N1CCN(CCCCNC(=O)c3ccc4ccccc4c3)C[C@H]1CC2`, the inhibition constant Ki at D(2) dopamine receptor stood at 1720 nM; on D(3) dopamine receptor it was 44 nM.
On D(2) dopamine receptor, `O=C(NCCCCN1CCN2c3ccccc3CCC2C1)c1ccc2ccccc2c1` (stereo not drawn) yielded a Ki of 1570 nM. This counts as single-digit micromolar.
As to `COc1ccc2c(c1)CC[C@@H]1CN(CCN3CCC(NC(=O)c4ccc5ccccc5c4)CC3)CCN21`, the inhibitory constant (Ki) at D(2) dopamine receptor is greater than 50000 nM; on D(3) dopamine receptor, 4640 nM.
The corresponding values for `COc1ccc2c(c1)CC[C@@H]1CN(CCCCNC(=O)c3ccc4ccccc4c3)CCN21` are greater than 100000 nM and 67 nM.
